Assay: Partition coefficient (log P 1-octanol/water) of organic co-solvents
Conditions: not given
Source text: The hydrophilicity of the organic co-solvent can be quantified as a partition coefficient. As used herein, “partition coefficient” refers to a concentration ratio of a compound in an equilibrium mixture of two immiscible phases, and can be a measure of the difference in solubility of the compound in the two immiscible phases. Formula I provides an equation of quantifying the hydrophilicity of the organic co-solvents of the present disclosure, as follows: […]
For `CC1(C)NC(=O)NC1=O` [5,5-dimethyl hydantoin], the “Partition Coefficient (log P1-octanol/water)” value was −0.40. For `CCCCCCCCO` [Ink 1-octanol, 1-octanol], the “Partition Coefficient (log P1-octanol/water)” value was 2.34. With `O=C1CCCN1CCO` [N-(2-hydroxyethyl)-2-pyrrolidinone] the “Partition Coefficient (log P1-octanol/water)” value was −0.40. In the case of `CC1(C)C(=O)N(CCO)C(=O)N1CCO` [di-(2-hydroxyethy)-5,5-dimethylhydantoin], the “Partition Coefficient (log P1-octanol/water)” value is reported as −1.39. For `OCCOCCOCCO` [triethylene glycol], the “Partition Coefficient (log P1-octanol/water)” value was −1.00. For `O` [water], the “Partition Coefficient (log P1-octanol/water)” value was −0.825.

Same assay, conditions: equilibrium mixture of 1-octanol and water
With `O=C1CCCN1` [2-pyrrolidone] the “Partition Coefficient (log P1-octanol/water)” value was −0.10. With `CCC(CO)(CO)CO` [ethylhydroxy propanediol] the “Partition Coefficient (log P1-octanol/water)” value was −0.50.
